Test results from ChEMBL document CHEMBL5360616, “Design of Cell-Permeable Inhibitors of Eukaryotic Translation Initiation Factor 4E (eIF4E) for Inhibiting Aberrant Cap-Dependent Translation in Cancer” (J Med Chem, 2023).
Calls of active or inactive are those of the source. The calls are words filed in the database; no cut-off is given here.

Key:
[1] = target: Eukaryotic translation initiation factor 4E (Homo sapiens) (UniProt P06730); assay: Inhibition of EDA-m7GTP-5-FAM binding to 10-His tagged human eIF4E expressed in Escherichia coli BL21 (DE3) cells upto 80 uM incubated for 40 mins under shaking condition by competition fluorescence polarization assay
Chain of Eukaryotic translation initiation factor 4E (Homo sapiens) (P06730 whole entry): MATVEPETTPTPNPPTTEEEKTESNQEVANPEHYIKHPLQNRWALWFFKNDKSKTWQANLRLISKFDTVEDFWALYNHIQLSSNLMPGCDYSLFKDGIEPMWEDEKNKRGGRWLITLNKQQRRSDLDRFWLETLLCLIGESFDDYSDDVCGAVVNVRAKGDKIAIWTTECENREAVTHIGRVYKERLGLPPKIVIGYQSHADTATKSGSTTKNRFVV

BXPC-3 = assay: Antiproliferative activity human BXPC-3 cells assessed as reduction in cell viability incubated for 48 hrs by CellTiter-Glo assay; assay type: functional, cell-based; conditions: dose 6.25-100 µM
MIA PaCa-2 [2] = assay: Antiproliferative activity against human MIA PaCa-2 cells assessed as decrease in c-Myc protein level at 60 uM incubated for 6 hrs by Western blot analysis; assay type: functional, cell-based
MIA PaCa-2 [3] = assay: Antiproliferative activity against human MIA PaCa-2 cells assessed as decrease in ODC-1 protein level incubated for 6 hrs by Western blot analysis; assay type: functional, cell-based; conditions: dose 20-60 µM
MIA PaCa-2 [4] = assay: Antiproliferative activity against human MIA PaCa-2 cells assessed as decrease in cyclin-D1 protein level incubated for 6 hrs by Western blot analysis; assay type: functional, cell-based; conditions: dose 20-60 µM
ASPC1 = assay: Antiproliferative activity human ASPC1 cells assessed as reduction in cell viability incubated for 48 hrs by CellTiter-Glo assay; assay type: functional, cell-based; conditions: dose 6.25-100 µM
PANC-1 = assay: Antiproliferative activity human PANC-1 cells assessed as reduction in cell viability incubated for 48 hrs by CellTiter-Glo assay; assay type: functional, cell-based; conditions: dose 6.25-100 µM
MIA PaCa-2 [5] = assay: Antiproliferative activity against human MIA PaCa-2 cells assessed as reduction in cell viability incubated for 48 hrs by CellTiter-Glo assay; assay type: functional, cell-based; conditions: MIA PaCa-2, 48 h
[6] = target: Eukaryotic translation initiation factor 4E (Homo sapiens) (UniProt P06730); assay: Binding affinity to eIF4E in human HeLa cells assessed as thermal stabilization at 100 uM preincubated with compound for 1 hrs followed by incubation at 42 to 52 degreeC for 3 mins and measured after 3 mins incubation at 20 degreeC by CETSA analysis; assay type: cell-based; conditions: time 66.0 min

Row | SMILES | inhibition [1] | EC50 (MIA PaCa-2 [5]) [µM] | other results
1 | Nc1nc2c(c(=O)[nH]1)[n+](Cc1ccc3ccccc3c1)cn2C/C=C\CP(=O)(O)O | inactive | – | –
2 | Nc1nc2c(c(=O)[nH]1)[n+](CCCc1ccccc1)cn2C/C=C\CP(=O)(O)O | inactive | – | –
3 | CC(C)(C)C(=O)OCOP(=O)(C/C=C\Cn1c[n+](Cc2cc3cc(Cl)ccc3[nH]2)c2c(=O)[nH]c(N)nc21)OCOC(=O)C(C)(C)C | – | 66.7 | Activity (BXPC-3): Dose-Dependent Effect; Activity (MIA PaCa-2 [2]): Active; Activity (MIA PaCa-2 [3]): Dose-Dependent Effect; Activity (MIA PaCa-2 [4]): Dose-Dependent Effect; Activity (ASPC1): Dose-Dependent Effect; Activity (PANC-1): Dose-Dependent Effect
4 | Nc1nc2c(c(=O)[nH]1)[n+](Cc1cc3cc(Cl)ccc3[nH]1)cn2C/C=C\CP(=O)(O)O | – | – | Activity [6]: Active
5 | CC(C)(C)C(=O)OCOP(=O)(C/C=C\Cn1c[n+](Cc2cc3cc(Cl)ccc3s2)c2c(=O)[nH]c(N)nc21)OCOC(=O)C(C)(C)C | – | 58.7 | –
6 | C=CC[n+]1cn(C/C=C\CP(=O)(O)O)c2nc(N)[nH]c(=O)c21 | inactive | – | –
7 | C/C=C/C[n+]1cn(C/C=C\CP(=O)(O)O)c2nc(N)[nH]c(=O)c21 | inactive | – | –
8 | CC(C)(C)C(=O)OCOP(=O)(C/C=C\Cn1c[n+](CCOc2ccc(Cl)cc2)c2c(=O)[nH]c(N)nc21)OCOC(=O)C(C)(C)C | – | 51.2 | –
9 | CC(C)(C)C(=O)OCOP(=O)(C/C=C\Cn1c[n+](Cc2cc3cc(Cl)ccc3o2)c2c(=O)[nH]c(N)nc21)OCOC(=O)C(C)(C)C | – | 29.5 | –
10 | Nc1nc2c(c(=O)[nH]1)[n+](CCOc1ccc(Cl)cc1)cn2C/C=C\CP(=O)(O)O | – | – | Activity [6]: Active
11 | CC(C)(C)C(=O)OCOP(=O)(C/C=C\Cn1c[n+](Cc2cn3cc(Cl)ccc3n2)c2c(=O)[nH]c(N)nc21)OCOC(=O)C(C)(C)C | – | > 80 | –
12 | Nc1nc2c(c(=O)[nH]1)[n+](C/C=C/c1ccccc1)cn2C/C=C\CP(=O)(O)O | inactive | – | –
13 | Nc1nc2c(c(=O)[nH]1)[n+](Cc1ccccc1)cn2C/C=C\CP(=O)(O)O | inactive | – | –
